Patent publication US20230041996A1, “CALCIUM-SENSING RECEPTOR AGONIST COMPOUND AND APPLICATION THEREOF” (BEIJING TUO JIE BIOPHARMACEUTICAL CO. LTD., priority 2019, published 2023)
Like-named read-outs stand apart in the source and are kept apart here. Square brackets hold non-standard residues; d marks the D form. Peptide text beside a SMILES is read from it. * marks the point of attachment. dPhe(4-NO2) = N[C@H](Cc1ccc([N+](=O)[O-])cc1)C(=O)O; dPhe(4-Me) = Cc1ccc(C[C@@H](N)C(=O)O)cc1; Cys(free,S-linked) = N[C@@H](CS*)C(=O)O; d2Nal = N[C@H](Cc1ccc2ccccc2c1)C(=O)O; d(hPhe) = N[C@H](CCc1ccccc1)C(=O)O; dChg = N[C@@H](C(=O)O)C1CCCCC1; dTle = CC(C)(C)[C@@H](N)C(=O)O

Assays:
[1] = biological target: T1, human calcium-sensing receptor (CaSR) (Homo sapiens, UniProt P41180); assay: Agonist activity on human calcium-sensing receptor (IP-One HTRF in stably transfected HEK293/CaSR cells); assay type: cell-based
T1 construct: host or cells: HEK293
T1 sequence (P41180 20-1078): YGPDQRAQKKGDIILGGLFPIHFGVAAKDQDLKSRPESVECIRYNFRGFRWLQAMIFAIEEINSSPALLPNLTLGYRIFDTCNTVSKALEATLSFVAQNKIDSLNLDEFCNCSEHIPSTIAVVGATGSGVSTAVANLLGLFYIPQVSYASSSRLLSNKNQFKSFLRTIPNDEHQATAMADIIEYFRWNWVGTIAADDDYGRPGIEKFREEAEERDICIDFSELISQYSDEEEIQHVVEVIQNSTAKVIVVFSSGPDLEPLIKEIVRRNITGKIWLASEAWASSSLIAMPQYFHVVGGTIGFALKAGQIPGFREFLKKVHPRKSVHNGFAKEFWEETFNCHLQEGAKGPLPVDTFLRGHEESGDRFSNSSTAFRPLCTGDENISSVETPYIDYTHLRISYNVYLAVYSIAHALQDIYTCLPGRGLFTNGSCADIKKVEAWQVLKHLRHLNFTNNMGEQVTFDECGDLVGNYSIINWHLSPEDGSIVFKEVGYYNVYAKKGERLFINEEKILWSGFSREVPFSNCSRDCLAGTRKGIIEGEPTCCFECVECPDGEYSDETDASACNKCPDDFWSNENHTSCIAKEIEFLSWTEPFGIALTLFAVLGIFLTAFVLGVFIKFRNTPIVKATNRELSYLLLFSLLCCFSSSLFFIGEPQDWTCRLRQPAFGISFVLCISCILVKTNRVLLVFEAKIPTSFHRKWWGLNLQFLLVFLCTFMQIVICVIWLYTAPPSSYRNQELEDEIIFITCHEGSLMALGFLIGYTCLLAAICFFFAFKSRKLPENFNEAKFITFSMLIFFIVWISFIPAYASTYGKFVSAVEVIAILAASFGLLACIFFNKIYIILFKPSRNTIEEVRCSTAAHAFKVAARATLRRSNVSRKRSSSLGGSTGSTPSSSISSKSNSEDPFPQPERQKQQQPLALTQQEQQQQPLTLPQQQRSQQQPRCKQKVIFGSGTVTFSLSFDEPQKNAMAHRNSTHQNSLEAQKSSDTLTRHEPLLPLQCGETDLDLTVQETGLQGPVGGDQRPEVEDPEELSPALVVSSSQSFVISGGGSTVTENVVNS
Description: 3.1.1 Objective: The test example is intended to measure the agonist activity of compounds 1-38 on the human calcium-sensing receptor (CaSR).
Stably transfected HEK293/CaSR cells (source: Pharmaron) were cultured in a complete medium (composition: DMEM, high glucose+10% FBS+2 mM GlutaMAX+1× Penicillin-Streptomycin+200 μg/mL Hygromycin B) and incubated at 37° C./5% CO2 till 70%-90% cell confluence. The cells were digested with TrypLE, inoculated into 384-well cell culture plates, and cultured overnight at 37° C./5% CO2. After buffer exchange, stimulation buffer (HEPES 10 mM, MgCl2 0.5 mM, KCl 4.2 mM, NaCl 146 mM, glucose 5.5 mM, LiCl 50 mM, CaCl2 1.2 mM) and various concentrations of the test example compounds were added and incubated at 37° C. for 60 min. Production of IP-One in cells was detected according to the procedures in the Cisbio IP-One Tb kit instructions. The EC50 values of various test example compounds in influencing human calcium-sensing receptor was calculated by software after the raw data of the example compounds were collected, so as to evaluate the agonist activity of the example compounds on human calcium-sensing receptor.
HTRF signal was read by an EnVision detector with an excitation wavelength of 320 nm and emission wavelengths of 620 nm and 665 nm. The signal ratio (665 nm/620 nm×10,000) was calculated and fitted non-linearly to the sample concentration in GraphPad Prism 6 using a four-parameter equation to give EC50 values of the test example compounds 1-38.

[2] = system: rat peritoneal mast cells; assay: In vitro histamine release in rat peritoneal mast cells (histamine ELISA); assay type: cell-based; conditions: test compound final concentration 10 μM, 15 min at 37° C., relative to PBS buffer (1.00)
Description: To evaluate the in vitro histamine release levels induced by some of the test example compounds, rat peritoneal mast cells were collected by lavaging rat peritoneum with a lavage buffer (cold HBSS+25 mM HEPES containing heparin 5 U/mL, pH 7.4). After collection, the cells were centrifuged, and the lavage buffer was discarded. The cells were resuspended and washed twice with a stimulation buffer (HBSS+25 mM HEPES+1 mM CaCl2), pH 7.4). The cells were plated at a density of 10^5 cell/well (200 μL/well) and incubated at 37° C. for 15 min with positive control compound 48/80 (final concentration: 4 μg/mL), test example compounds (final concentration: 10 μM) or vehicle control. The cells were centrifuged, and cell supernatant was collected and tested for histamine concentration according to LDN Histamine ELISA kit (BAE-1000) instructions.

[3] = HEK293/CaSR cells, IP-One production, 60 min at 37° C., CaCl2 1.2 mM, read-out: EC50 for calcium-sensing receptor

| Structure (SMILES) | EC50 [1, 3] [µM] | Relative fold of histamine release in vitro [2] | EC50 [1] [µM] |
| --- | --- | --- | --- |
| CC(=O)N[C@H](CSSC[C@H](N)C(=O)O)C(=O)N[C@H](CO)C(=O)N[C@H](CCCNC(=N)N)C(=O)N[C@H](CCCNC(=N)N)C(=O)N[C@H](CCCNC(=N)N)C(=O)NCC(=O)N[C@H](CCCNC(=N)N)C(N)=O [Compound 8, Ac-c(C)-s-r-r-r-G-r-NH2] (Ac-[dC](Cys(free,S-linked))[dS][dR][dR][dR]G[dR]-NH2) | 14.3 | 1.50 | – |
| CC(=O)N[C@H](CSSC[C@H](N)C(=O)O)C(=O)N[C@H](CCCNC(=N)N)C(=O)N[C@H](CCCNC(=N)N)C(=O)N[C@@H](C(=O)N[C@H](CCCNC(=N)N)C(=O)N[C@H](CO)C(=O)N[C@H](CCCNC(=N)N)C(N)=O)C1CCCCC1 [Compound 35, Ac-c(C)-r-r-(D-Chg)-r-s-r-NH2] (Ac-[dC](Cys(free,S-linked))[dR][dR][dChg][dR][dS][dR]-NH2) | 12.9 | 2.06 | – |
| CC(=O)N[C@H](CSSC[C@H](N)C(=O)O)C(=O)N[C@H](CO)C(=O)N[C@H](CCCNC(=N)N)C(=O)N[C@H](CCCNC(=N)N)C(=O)N[C@H](CCCNC(=N)N)C(=O)N[C@H](CO)C(=O)N[C@H](CCCNC(=N)N)C(N)=O [Compound 6, Ac-c(C)-s-r-r-r-s-r-NH2] (Ac-[dC](Cys(free,S-linked))[dS][dR][dR][dR][dS][dR]-NH2) | 11.6 | 1.65 | – |
| CC(=O)N[C@H](CSSC[C@H](N)C(=O)O)C(=O)N[C@H](CCCNC(=N)N)C(=O)N[C@H](CCCNC(=N)N)C(=O)N[C@H](CCc1ccccc1)C(=O)N[C@H](CCCNC(=N)N)C(=O)N[C@H](C)C(=O)N[C@H](CCCNC(=N)N)C(N)=O [Compound 16, Ac-c(C)-r-r-(D-hPhe)-r-a-r-NH2] (Ac-[dC](Cys(free,S-linked))[dR][dR][d(hPhe)][dR][dA][dR]-NH2) | 2.37 | 2.94 | – |
| CC(=O)N[C@H](CSSC[C@H](N)C(=O)O)C(=O)N[C@H](CCCNC(=N)N)C(=O)N[C@H](CCCNC(=N)N)C(=O)N[C@H](Cc1c[nH]cn1)C(=O)N[C@H](CCCNC(=N)N)C(=O)N[C@H](CO)C(=O)N[C@H](CCCNC(=N)N)C(N)=O [Compound 27, Ac-c(C)-r-r-h-r-s-r-NH2] (Ac-[dC](Cys(free,S-linked))[dR][dR][dH][dR][dS][dR]-NH2) | 10.8 | 2.23 | – |
| CC(=O)N[C@H](CSSC[C@H](N)C(=O)O)C(=O)N[C@H](CCCNC(=N)N)C(=O)N[C@H](CCCNC(=N)N)C(=O)N[C@@H](C(=O)N[C@H](CCCNC(=N)N)C(=O)N[C@H](CO)C(=O)N[C@H](CCCNC(=N)N)C(N)=O)C(C)(C)C [Compound 37, Ac-c(C)-r-r-(D-Tle)-r-s-r-NH2] (Ac-[dC](Cys(free,S-linked))[dR][dR][dTle][dR][dS][dR]-NH2) | 15.4 | 2.23 | – |
| CC(=O)N[C@H](CSSC[C@H](N)C(=O)O)C(=O)N[C@H](CCCNC(=N)N)C(=O)N[C@H](CCCNC(=N)N)C(=O)N[C@@H](C(=O)N[C@H](CCCNC(=N)N)C(=O)NCC(=O)N[C@H](CCCNC(=N)N)C(N)=O)C1CCCCC1 [Compound 36, Ac-c(C)-r-r-(D-Chg)-r-G-r-NH2] (Ac-[dC](Cys(free,S-linked))[dR][dR][dChg][dR]G[dR]-NH2) | 17.9 | – | – |
| CC(=O)N[C@H](CSSC[C@H](N)C(=O)O)C(=O)N[C@H](CCCNC(=N)N)C(=O)N[C@H](CCCNC(=N)N)C(=O)N[C@H](Cc1c[nH]cn1)C(=O)N[C@H](CCCNC(=N)N)C(=O)NCC(=O)N[C@H](CCCNC(=N)N)C(N)=O [Compound 28, Ac-c(C)-r-r-h-r-G-r-NH2] (Ac-[dC](Cys(free,S-linked))[dR][dR][dH][dR]G[dR]-NH2) | 21.5 | – | – |
| CC(=O)N[C@H](CSSC[C@H](N)C(=O)O)C(=O)N[C@H](Cc1ccc(C)cc1)C(=O)N[C@H](CCCNC(=N)N)C(=O)N[C@H](CCCNC(=N)N)C(=O)N[C@H](CCCNC(=N)N)C(=O)N[C@H](C)C(=O)N[C@H](CCCNC(=N)N)C(N)=O [Compound 3, Ac-c(C)-[D-Phe(4-CH3)]-r-r-r-a-r-NH2] (Ac-[dC](Cys(free,S-linked))[dPhe(4-Me)][dR][dR][dR][dA][dR]-NH2) | 15.3 | – | – |
| CC(=O)N[C@H](CSSC[C@H](N)C(=O)O)C(=O)N[C@H](CCCNC(=N)N)C(=O)N[C@H](CCCNC(=N)N)C(=O)N[C@H](C)C(=O)N[C@H](CCCNC(=N)N)C(=O)N[C@H](C)C(=O)N[C@H](CCCNC(=N)N)C(N)=O [Etelcalcetide analogue, Ac-c(C)-r-r-a-r-a-r-NH2, reference compound] (Ac-[dC](Cys(free,S-linked))[dR][dR][dA][dR][dA][dR]-NH2) | – | – | 6.74 |
| CC(=O)N[C@H](CSSC[C@H](N)C(=O)O)C(=O)N[C@H](Cc1c[nH]c2ccccc12)C(=O)N[C@H](CCCNC(=N)N)C(=O)N[C@H](CCCNC(=N)N)C(=O)N[C@H](CCCNC(=N)N)C(=O)NCC(=O)N[C@H](CCCNC(=N)N)C(N)=O [Compound 9, Ac-c(C)-w-r-r-r-G-r-NH2] (Ac-[dC](Cys(free,S-linked))[dW][dR][dR][dR]G[dR]-NH2) | 3.16 | – | – |
| CC(=O)N[C@H](CSSC[C@H](N)C(=O)O)C(=O)N[C@H](CCCNC(=N)N)C(=O)N[C@H](CCCNC(=N)N)C(=O)N[C@H](Cc1ccc([N+](=O)[O-])cc1)C(=O)N[C@H](CCCNC(=N)N)C(=O)N[C@H](C)C(=O)N[C@H](CCCNC(=N)N)C(N)=O [Compound 14, Ac-c(C)-r-r-[D-Phe(4-NO2)]-r-a-r-NH2] (Ac-[dC](Cys(free,S-linked))[dR][dR][dPhe(4-NO2)][dR][dA][dR]-NH2) | 4.33 | – | – |
| CC(=O)N[C@H](CSSC[C@H](N)C(=O)O)C(=O)N[C@H](CCCNC(=N)N)C(=O)N[C@H](CCCNC(=N)N)C(=O)N[C@H](CCC(N)=O)C(=O)N[C@H](CCCNC(=N)N)C(=O)NCC(=O)N[C@H](CCCNC(=N)N)C(N)=O [Compound 23, Ac-c(C)-r-r-q-r-G-r-NH2] (Ac-[dC](Cys(free,S-linked))[dR][dR][dQ][dR]G[dR]-NH2) | 30.4 | – | – |
| CC(=O)N[C@H](CSSC[C@H](N)C(=O)O)C(=O)N[C@H](CCCNC(=N)N)C(=O)N[C@H](CCCNC(=N)N)C(=O)N[C@@H](C(=O)N[C@H](CCCNC(=N)N)C(=O)NCC(=O)N[C@H](CCCNC(=N)N)C(N)=O)C(C)(C)C [Compound 38, Ac-c(C)-r-r-(D-Tle)-r-G-r-NH2] (Ac-[dC](Cys(free,S-linked))[dR][dR][dTle][dR]G[dR]-NH2) | 18.7 | – | – |
| CC(=O)N[C@H](CSSC[C@H](N)C(=O)O)C(=O)N[C@H](CCCNC(=N)N)C(=O)N[C@H](CCCNC(=N)N)C(=O)N[C@H](Cc1ccc2ccccc2c1)C(=O)N[C@H](CCCNC(=N)N)C(=O)N[C@H](C)C(=O)N[C@H](CCCNC(=N)N)C(N)=O [Compound 15, Ac-c(C)-r-r-(D-2-NaI)-r-a-r-NH2] (Ac-[dC](Cys(free,S-linked))[dR][dR][d2Nal][dR][dA][dR]-NH2) | 5.59 | – | – |
